Entries after “also recorded” stand apart in the source; their conditions may differ. Like-named read-outs stand apart in the source and are kept apart here.
Legend:
Estrogen Receptor (ER) [1] = biological target: T1, Estrogen Receptor (ER) (Homo sapiens, UniProt P03372); test: htSMT of Halo-ER in U2OS cells (fbound, Dfree); assay type: cell-based; conditions: for change in ER fbound: follow-up of selected compounds
T1 construct: expressed in transfected cells
T1 sequence (P03372 1-595): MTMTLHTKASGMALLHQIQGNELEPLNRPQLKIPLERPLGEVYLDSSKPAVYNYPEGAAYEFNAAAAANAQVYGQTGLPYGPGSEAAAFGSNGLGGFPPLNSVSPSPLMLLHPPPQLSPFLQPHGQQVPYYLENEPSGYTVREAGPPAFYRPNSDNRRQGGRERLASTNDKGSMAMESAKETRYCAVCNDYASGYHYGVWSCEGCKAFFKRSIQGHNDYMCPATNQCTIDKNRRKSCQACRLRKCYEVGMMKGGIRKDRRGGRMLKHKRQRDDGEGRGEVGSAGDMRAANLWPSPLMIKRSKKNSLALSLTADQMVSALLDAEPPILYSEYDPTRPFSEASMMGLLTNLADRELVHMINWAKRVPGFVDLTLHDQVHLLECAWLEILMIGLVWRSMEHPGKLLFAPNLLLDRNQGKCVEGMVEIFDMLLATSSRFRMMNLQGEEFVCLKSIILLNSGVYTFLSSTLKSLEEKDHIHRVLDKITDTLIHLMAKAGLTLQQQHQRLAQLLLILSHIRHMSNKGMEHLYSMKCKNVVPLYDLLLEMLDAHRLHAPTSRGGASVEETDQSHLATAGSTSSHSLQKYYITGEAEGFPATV

Estrogen Receptor (ER) [2] = biological target: T1, Estrogen Receptor (ER); test: kinetic SMT (kSMT) of ER after compound addition; assay type: cell-based; conditions: 100 nM compound
Estrogen Receptor (ER) [3] = biological target: T1, Estrogen Receptor (ER); test: residence time imaging of ER-Halo (track length); assay type: cell-based; conditions: versus DMSO, 100 nM HSP90 inhibition
ER = ER (Homo sapiens, UniProt P03372); test: western blot of ER after 24 hours treatment; assay type: cell-based; conditions: 24 hours prior to lysis; MCF7, T47d, U2OS ER-HaloTag
Protocol: Cells were grown in the same conditions as described previously. […] Cells are lysed in 200 μL 1× Cell Lysis Buffer (catalogue number 9803, Cell Signaling). Protein lysate concentration is then determined using BCA protein assay kit (Catalog number 23225, Pierce™ BCA Protein Assay Kit) following manufacturer instructions. Capillary Western Immunoassay were performed using Jess Protein Simple following manufacturer's instruction (protein simple, USA). Levels of αER (1:100, RM-9101) were normalized to loading control β-tubulin (1:100, NC0244815 LI-COR 92642213, Thermo Fisher). The peaks were analyzed with the Compass software (Protein Simple, USA).

[4] = biological target: T2, glucocorticoid receptor (GR) (Homo sapiens, UniProt P04150); test: htSMT of Halo-GR in U2OS cells; assay type: cell-based; conditions: 1 μM antagonist, singly or with cognate agonist
T2 construct: Because U2OS cells express GR endogenously; endogenous in cells; host or cells: U2OS, CRISPR/Cas9 knock-in at the endogenous NR3C1 locus
T2 sequence (P04150 1-777): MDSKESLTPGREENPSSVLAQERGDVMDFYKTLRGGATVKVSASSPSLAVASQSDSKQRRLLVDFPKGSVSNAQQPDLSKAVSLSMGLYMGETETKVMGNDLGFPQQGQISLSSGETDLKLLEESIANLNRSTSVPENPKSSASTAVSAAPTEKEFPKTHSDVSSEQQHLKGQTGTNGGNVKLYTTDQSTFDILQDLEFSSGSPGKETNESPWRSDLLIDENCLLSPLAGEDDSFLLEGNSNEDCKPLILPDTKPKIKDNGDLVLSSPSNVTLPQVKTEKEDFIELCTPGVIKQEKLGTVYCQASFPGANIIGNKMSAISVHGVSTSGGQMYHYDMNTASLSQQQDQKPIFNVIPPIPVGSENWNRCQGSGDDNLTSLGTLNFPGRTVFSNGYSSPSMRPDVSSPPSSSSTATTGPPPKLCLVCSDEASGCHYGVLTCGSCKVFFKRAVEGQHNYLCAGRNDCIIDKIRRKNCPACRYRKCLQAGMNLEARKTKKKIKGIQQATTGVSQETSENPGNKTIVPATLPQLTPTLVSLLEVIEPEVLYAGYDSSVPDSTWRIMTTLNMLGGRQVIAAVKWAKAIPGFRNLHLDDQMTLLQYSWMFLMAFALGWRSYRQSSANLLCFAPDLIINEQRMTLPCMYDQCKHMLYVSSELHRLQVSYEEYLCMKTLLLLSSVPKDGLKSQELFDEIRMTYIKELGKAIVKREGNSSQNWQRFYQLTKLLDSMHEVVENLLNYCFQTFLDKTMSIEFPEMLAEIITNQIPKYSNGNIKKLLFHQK
Description: Where appropriate, compounds were serially diluted in an Echo Qualified 384-Well Low Dead Volume Source Microplate (0018544, Beckman Coulter) to generate dose-titration source material.

androgen receptor (AR) = androgen receptor (AR) (Homo sapiens, UniProt P10275)
Chain of androgen receptor (AR) (P10275 whole entry): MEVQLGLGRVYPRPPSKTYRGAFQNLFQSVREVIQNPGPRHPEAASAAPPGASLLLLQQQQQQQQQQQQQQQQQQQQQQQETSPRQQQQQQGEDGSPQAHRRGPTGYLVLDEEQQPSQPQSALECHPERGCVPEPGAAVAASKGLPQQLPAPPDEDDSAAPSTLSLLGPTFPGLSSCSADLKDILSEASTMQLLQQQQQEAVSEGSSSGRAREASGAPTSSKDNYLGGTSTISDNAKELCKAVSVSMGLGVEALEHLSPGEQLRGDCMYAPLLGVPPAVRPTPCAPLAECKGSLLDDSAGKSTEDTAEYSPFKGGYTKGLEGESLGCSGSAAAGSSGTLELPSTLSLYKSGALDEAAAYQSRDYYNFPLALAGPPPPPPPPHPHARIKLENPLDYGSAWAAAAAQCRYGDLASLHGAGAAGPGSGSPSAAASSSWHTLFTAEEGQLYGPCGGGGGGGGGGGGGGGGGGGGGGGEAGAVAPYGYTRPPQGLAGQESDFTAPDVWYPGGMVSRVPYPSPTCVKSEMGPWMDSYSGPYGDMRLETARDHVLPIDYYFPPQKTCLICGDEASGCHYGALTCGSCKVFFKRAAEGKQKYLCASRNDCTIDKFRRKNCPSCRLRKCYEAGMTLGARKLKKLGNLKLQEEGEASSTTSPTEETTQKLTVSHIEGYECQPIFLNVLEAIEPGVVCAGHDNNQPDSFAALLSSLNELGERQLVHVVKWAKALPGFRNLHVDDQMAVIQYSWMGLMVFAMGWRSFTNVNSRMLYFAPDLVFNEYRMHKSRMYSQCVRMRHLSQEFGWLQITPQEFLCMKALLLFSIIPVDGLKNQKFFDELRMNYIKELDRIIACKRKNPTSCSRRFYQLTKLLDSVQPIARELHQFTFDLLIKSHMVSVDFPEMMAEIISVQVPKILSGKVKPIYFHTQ

## COc1cccc(-c2cc(F)ccc2[C@H]2Cc3nc(N)nc(C)c3C(=O)N2)n1 [HSP990]
Estrogen Receptor (ER) [1]
  change in ER fbound: increase in fbound
Estrogen Receptor (ER) [2]
  time at which overall effect on fbound reached a plateau: plateau after an hour
Estrogen Receptor (ER) [3]
  decrease in total number of long binding events: two

## CC(C)c1cc(-c2n[nH]c(=O)n2-c2ccc3c(ccn3C)c2)c(O)cc1O [ganetespib]
Estrogen Receptor (ER) [1]
  change in ER fbound: increase in fbound
Estrogen Receptor (ER) [2]
  time at which overall effect on fbound reached a plateau: plateau after an hour
Estrogen Receptor (ER) [3]
  decrease in total number of long binding events: four

## C[C@]12CC[C@@H]3c4ccc(O)cc4C[C@@H](CCCCCCCCC[S+]([O-])CCCC(F)(F)C(F)(F)F)[C@H]3[C@@H]1CC[C@@H]2O (stereo partly drawn) [fulvestrant]
Estrogen Receptor (ER) [1]; 1 μM compound versus DMSO
  change in ER fbound in bioactive screen: increase in fbound; also recorded: significantly increased fbound
ER
  ER degradation (western blot): degradation of ER

## CN(C)c1ccc(C(c2ccc(N(C)C)cc2)c2cc([N+](=O)[O-])ccc2Cl)cc1 [AL082D06]
[4]
  GR chromatin binding (fbound): decrease in chromatin binding

## CC(O)c1cc(C(=O)N[C@@H](C)Cn2ccc(-c3ccc(C#N)c(Cl)c3)n2)[nH]n1 (stereo partly drawn) [Darolutamide]
Androgen receptor (AR)
  AR fbound / chromatin binding: decrease in chromatin binding

## 4-hydroxytamoxifen
Estrogen Receptor (ER) [1]
  change in ER fbound in bioactive screen: significantly increased fbound
  maximal increase in ER fbound: lower maximal increases in fbound

From patent US20250314869A1, “SYSTEMS AND METHODS FOR HIGH THROUGHPUT SINGLE MOLECULE TRACKING IN LIVING CELLS” (EIKON THERAPEUTICS, INC., priority 2022, published 2025)
